Results taken from US6737383B1, “Herbicidal oxadiazolidines” (priority 1999, dated 2004).

How the values were obtained:
duck salad = assay: Test B flood test duck salad; type: in vivo, Heteranthera limosa
Outline: (§1)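 Flood test on plants grown to the 2-leaf stage; treated plants kept in greenhouse twelve to sixteen days, then visually rated against controls on a 0 (no effect) to 10 (complete control) scale.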

rape = assay: Test B pre/postemergence rape; type: in vivo, Brassica napus
Outline: (§2)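 Response is a visual 0-to-10 score relative to untreated plants, where 0 means no effect and 10 means complete control, taken twelve to sixteen days after application. Treatments went onto soil at planting and onto foliage of 1- to 4-leaf plants, using a surfactant-containing non-phytotoxic solvent.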

rice = assay: Test B flood test rice; type: in vivo, Oryza sativa
Outline: as §1

crabgrass = assay: Test B pre/postemergence crabgrass; type: in vivo, Digitaria sanguinalis
Outline: as §2

surinam grass = assay: Test B pre/postemergence surinam grass; type: in vivo, Brachiaria decumbens
Outline: as §2

smallflower flatsedge = assay: Test B flood test smallflower flatsedge; type: in vivo, Cyperus difformis
Outline: as §1

giant foxtail = assay: Test B pre/postemergence giant foxtail; type: in vivo, Setaria faberii
Outline: as §2

wheat = assay: Test B pre/postemergence wheat; type: in vivo, Triticum aestivum
Outline: as §2

bedstraw = assay: Test B pre/postemergence bedstraw; type: in vivo, Galium aparine
Outline: as §2

soybean = assay: Test B pre/postemergence soybean; type: in vivo, Glycine max
Outline: as §2

purple nutsedge = assay: Test B pre/postemergence purple nutsedge; type: in vivo, Cyperus rotundus
Outline: as §2

morningglory = assay: Test B pre/postemergence morningglory; type: in vivo, Ipomoea hederacea
Outline: as §2

blackgrass = assay: Test B pre/postemergence blackgrass; type: in vivo, Alopecurus myosuroides
Outline: as §2

wild oat = assay: Test B pre/postemergence wild oat; type: in vivo, Avena fatua
Outline: as §2

corn = assay: Test B pre/postemergence corn; type: in vivo, Zea mays
Outline: as §2

velvetleaf = assay: Test B pre/postemergence velvetleaf; type: in vivo, Abutilon theophrasti
Outline: as §2

[1] = Rate 62 g/ha, headed Pre-emergence (flood test species), scale 0 to 10 (0 no effect, 10 complete control)
[2] = Rate 125 g/ha, Pre-emergence, flood test species, scale 0 to 10 where 0 is no effect and 10 is complete control
[3] = Rate 250 g/ha, Pre-emergence, flood-test species, scale 0 to 10, 0 is no effect, 10 is complete control
[4] = Rate 500 g/ha, Pre-emergence, flood test species, scale 0 to 10 (0 no effect, 10 complete control)
[5] = Preemergence, Rate 62 g/ha, scale of 0 to 10 where 0 is no effect and 10 is complete control
[6] = Preemergence, Rate 250 g/ha, scale of 0 to 10 where 0 is no effect and 10 is complete control
[7] = Preemergence, Rate 500 g/ha, scale of 0 to 10 where 0 is no effect and 10 is complete control
[8] = Rate 62 g/ha, Postemergence, scale of 0 to 10 where 0 is no effect and 10 is complete control
[9] = Rate 125 g/ha, Postemergence, scale 0 to 10
[10] = Rate 125 g/ha, Preemergence, scale of 0 to 10 where 0 is no effect and 10 is complete control
[11] = Rate 500 g/ha, Postemergence, scale 0 to 10, 0 no effect, 10 complete control

Cc1ccccc1-n1c(=O)on(C(=O)N(c2ccc(C(C)C)cc2)C(C)C)c1=O [Compound 231]
Ducksalad plant response rating (duck salad; [1]): 0 | Ducksalad plant response rating (duck salad; [2]): 0 | Ducksalad plant response rating (duck salad; [3]): 0 | Ducksalad plant response rating (duck salad; [4]): 0 | Rape plant response rating (rape; [5]): 0 | Rape plant response rating (rape; [6]): 0 | Plant response rating, Rape (rape; [7]): 0 | Rape plant response rating (rape; [8]): 0 | Rape plant response rating (rape; [9]): 0 | Rape plant response rating (rape; [10]): 0 | Plant response rating (0 to 10; 0 is no effect, 10 is complete control), Rape (rape; Rate 250 g/ha, Postemergence): 0 | Rape plant response rating (rape; [11]): 0 | Rice plant response rating (rice; [1]): 0 | Rice plant response rating (rice; [2]): 0 | Rice plant response rating (rice; [3]): 0 | Rice plant response rating (rice; [4]): 0 | Crabgrass plant response rating (crabgrass; [5]): 0 | Crabgrass plant response rating (crabgrass; [6]): 0 | Plant response rating, Crabgrass (crabgrass; [7]): 7 | Crabgrass plant response rating (crabgrass; [8]): 0 | Crabgrass plant response rating (crabgrass; [9]): 0 | Crabgrass plant response rating (crabgrass; [10]): 0 | Plant response rating (0 to 10; 0 is no effect, 10 is complete control), Crabgrass (crabgrass; Rate 250 g/ha, Postemergence): 0 | Crabgrass plant response rating (crabgrass; [11]): 2 | B. signalgrass plant response rating (surinam grass; [5]): 0 | B. signalgrass plant response rating (surinam grass; Preemergence, Rate 250 g/ha, scale 0 to 10, 0 is no effect, 10 is complete control): 0 | Plant response rating, B. signalgrass (surinam grass; [7]): 0 | B. signalgrass plant response rating (surinam grass; [8]): 0 | B. signalgrass plant response rating (surinam grass; Rate 125 g/ha, Postemergence, scale 0 (no effect) to 10 (complete control)): 0 | B. signalgrass plant response rating (surinam grass; [10]): 0 | Plant response rating (0 to 10; 0 is no effect, 10 is complete control), B. signalgrass (surinam grass; Rate 250 g/ha, Postemergence): 0 | B. signalgrass plant response rating (surinam grass; [11]): 0 | S. Flatsedge plant response rating (smallflower flatsedge; [1]): 0 | S. Flatsedge plant response rating (smallflower flatsedge; [2]): 0 | S. Flatsedge plant response rating (smallflower flatsedge; [3]): 0 | S. Flatsedge plant response rating (smallflower flatsedge; [4]): 0 | Giant foxtail plant response rating (giant foxtail; [5]): 0 | Giant foxtail plant response rating (giant foxtail; [6]): 3 | Plant response rating, Giant foxtail (giant foxtail; [7]): 8 | Giant foxtail plant response rating (giant foxtail; [8]): 0 | Giant foxtail plant response rating (giant foxtail; [9]): 0 | Giant foxtail plant response rating (giant foxtail; [10]): 0 | Plant response rating (0 to 10; 0 is no effect, 10 is complete control), Giant foxtail (giant foxtail; Rate 250 g/ha, Postemergence): 0 | Giant foxtail plant response rating (giant foxtail; [11]): 0 | Wheat plant response rating (wheat; [5]): 0 | Wheat plant response rating (wheat; [6]): 0 | Plant response rating, Wheat (wheat; [7]): 0 | Wheat plant response rating (wheat; [8]): 0 | Wheat plant response rating (wheat; [9]): 0 | Wheat plant response rating (wheat; [10]): 0 | Plant response rating (0 to 10; 0 is no effect, 10 is complete control), Wheat (wheat; Rate 250 g/ha, Postemergence): 0 | Wheat plant response rating (wheat; [11]): 0 | Bedstraw plant response rating (bedstraw; [5]): 0 | Bedstraw plant response rating (bedstraw; [6]): 0 | Plant response rating, Bedstraw (bedstraw; [7]): 0 | Bedstraw plant response rating (bedstraw; [8]): 0 | Bedstraw plant response rating (bedstraw; [9]): 0 | Bedstraw plant response rating (bedstraw; [10]): 0 | Plant response rating (0 to 10; 0 is no effect, 10 is complete control), Bedstraw (bedstraw; Rate 250 g/ha, Postemergence): 0 | Bedstraw plant response rating (bedstraw; [11]): 0 | Soybean plant response rating (soybean; [5]): 0 | Soybean plant response rating (soybean; [6]): 0 | Plant response rating, Soybean (soybean; [7]): 0 | Soybean plant response rating (soybean; [8]): 0 | Soybean plant response rating (soybean; [9]): 1 | Soybean plant response rating (soybean; [10]): 0 | Plant response rating (0 to 10; 0 is no effect, 10 is complete control), Soybean (soybean; Rate 250 g/ha, Postemergence): 1 | Soybean plant response rating (soybean; [11]): 1 | Nutsedge plant response rating (purple nutsedge; [5]): 0 | Nutsedge plant response rating (purple nutsedge; [6]): 0 | Plant response rating, Nutsedge (purple nutsedge; [7]): 0 | Nutsedge plant response rating (purple nutsedge; [8]): 0 | Nutsedge plant response rating (purple nutsedge; [9]): 0 | Nutsedge plant response rating (purple nutsedge; [10]): 0 | Plant response rating (0 to 10; 0 is no effect, 10 is complete control), Nutsedge (purple nutsedge; Rate 250 g/ha, Postemergence): 0 | Nutsedge plant response rating (purple nutsedge; [11]): 0 | Morningglory plant response rating (morningglory; [5]): 0 | Morningglory plant response rating (morningglory; [6]): 0 | Plant response rating, Morningglory (morningglory; [7]): 6 | Morningglory plant response rating (morningglory; [8]): 1 | Morningglory plant response rating (morningglory; [9]): 2 | Morningglory plant response rating (morningglory; [10]): 0 | Plant response rating (0 to 10; 0 is no effect, 10 is complete control), Morningglory (morningglory; Rate 250 g/ha, Postemergence): 3 | Morningglory plant response rating (morningglory; [11]): 4 | Blackgrass plant response rating (blackgrass; [5]): 0 | Blackgrass plant response rating (blackgrass; [6]): 0 | Plant response rating, Blackgrass (blackgrass; [7]): 0 | Blackgrass plant response rating (blackgrass; [8]): 0 | Blackgrass plant response rating (blackgrass; [9]): 0 | Blackgrass plant response rating (blackgrass; [10]): 0 | Plant response rating (0 to 10; 0 is no effect, 10 is complete control), Blackgrass (blackgrass; Rate 250 g/ha, Postemergence): 0 | Blackgrass plant response rating (blackgrass; [11]): 0 | Wild oats plant response rating (wild oat; [5]): 0 | Wild oats plant response rating (wild oat; [6]): 0 | Plant response rating, Wild oats (wild oat; [7]): 0 | Wild oats plant response rating (wild oat; [8]): 0 | Wild oats plant response rating (wild oat; [9]): 0 | Wild oats plant response rating (wild oat; [10]): 0 | Plant response rating (0 to 10; 0 is no effect, 10 is complete control), Wild oats (wild oat; Rate 250 g/ha, Postemergence): 0 | Wild oats plant response rating (wild oat; [11]): 0 | Corn plant response rating (corn; [5]): 0 | Corn plant response rating (corn; [6]): 0 | Plant response rating, Corn (corn; [7]): 0 | Corn plant response rating (corn; [8]): 0 | Corn plant response rating (corn; [9]): 0 | Corn plant response rating (corn; [10]): 0 | Plant response rating (0 to 10; 0 is no effect, 10 is complete control), Corn (corn; Rate 250 g/ha, Postemergence): 0 | Corn plant response rating (corn; [11]): 0 | Velvetleaf plant response rating (velvetleaf; [5]): 0 | Velvetleaf plant response rating (velvetleaf; [6]): 0 | Plant response rating, Velvetleaf (velvetleaf; [7]): 0 | Velvetleaf plant response rating (velvetleaf; [8]): 0 | Velvetleaf plant response rating (velvetleaf; [9]): 0 | Velvetleaf plant response rating (velvetleaf; [10]): 0 | Plant response rating (0 to 10; 0 is no effect, 10 is complete control), Velvetleaf (velvetleaf; Rate 250 g/ha, Postemergence): 0 | Velvetleaf plant response rating (velvetleaf; [11]): 0
